These results are taken from US8497285B2, “Therapy of autoimmune colitis using a TIP60 inhibitor” (The Trustees Of The University Of Pennsylvania, priority 2010, dated 2013).

The subject of assay [1] is Treg suppression of T cell proliferation. The assay can be described thus: Treg suppression assay (CFSE T cell proliferation, 3 days, varying Treg:T cell ratios). In kind it is cell-based. The settings on record: for suppression of Treg in vitro: 500x dilution of 10 mM, 20 micromolar, FIG. 10; for T cell proliferation (percentage of proliferated cells): Treg:Teff=1:1. From the text:
FIG. 8. are flow cytometry dataplots showing the enhancement of TIP60 inhibitor B7 suppression of Treg in vitro. Individual peaks reflect number of cells divisions under the standard test conditions (3 days), where the cell populations are dyed with CFSE (carboxyfluorescen diacetate, succimidyl ester). FIG. 8A are the data for DMSO without B7; FIG. 8B are the data for B7-1000×; FIG. 8C are the data for B7-4000×; and FIG. 8D are the data for B7-8000. In each case, the 1000×/4000×/8000× refers to the dilution factor of the B7, from an original 10 mM solution of B7; e.g, 1000× represents a solution diluted by a factor of 1000, so as to result in a 10 micromolar solution. The numbers in the upper left corner of the plot (e.g., 88, 81, 74, 65, and 37 of FIG. 8A) refer to the measured percentage of proliferated cells.
FIG. 10. are flow cytometry dataplots showing the enhancement of TIP60 inhibitors B7 suppression of Treg in vitro. FIG. 10A are the data for DMSO without any B7-type inhibitor; FIG. 10B are the data for B7-500×; FIG. 10C are the data for B7A-500×; FIG. 10D are the data for B7B-500; and FIG. 10D are the data for B7C-500×. In each case, the 500× refers to the dilution factor of the B7/B7A/B7B/B7C, from an original 10 mM solution of the compound; e.g, 500× represents a solution diluted by a factor of 500, so as to result in a 20 micromolar solution.
Several exemplary compounds of the present invention were screened at 10 μg/ml in vitro, at varying Treg:T cell ratios, using standard cell proliferation techniques (3 days, using CSFE dyes). Such techniques are well understood by those skilled in the art. For example, see Akimova T, Ge G, Golovina T, Mikheeva T, Wang L, Riley J L, Hancock W W., “Histone/protein deacetylase inhibitors increase suppressive functions of human FOXP3+ Tregs,” Clin Immunol. 2010 September; 136(3):348-63; Tao R, Hancock W W., Resistance of FOXP3+ regulatory T cells to Nur77-induced apoptosis promotes allograft survival,” PLoS One. 2008 May 28; 3(5):e2321; Tao R, Wang L, Murphy K M, Fraser C C, Hancock W W., “Regulatory T cell expression of herpesvirus entry mediator suppresses the function of B and T lymphocyte attenuator-positive effector T cells.,” J. Immunol. 2008 May 15; 180(10):6649-55; and Tao R, de Zoeten E F, Ozkaynak E, Chen C, Wang L, Porrett P M, Li B, Turka L A, Olson E N, Greene M I, Wells A D, Hancock W W., “Deacetylase inhibition promotes the generation and function of regulatory T cells,” Nat. Med. 2007 November; 13(11):1299-307 for the protocols used herein. Each of these references is incorporated by reference herein, at least for this purpose.
T cell proliferation was unimpaired in the absence of Treg cells (see left panels in FIG. 8A-D), but was increasingly impaired at increasing Treg concentration (for example, in FIG. 8A, increasing Treg:Tcell ratio from 0:1 to 1:1 reduced proliferation from 88% to 37% under otherwise identical conditions). […] Efficacy was also seen at 1 μg/ml for some compounds.

For another assay, the system named is FOXP3. The assay can be described thus: FOXP3 bound on chromatin in SZ-4 T cells (Western blot). In kind it is cell-based. The note with it: FIG. 9.
The target of another assay is T1, TIP60 (Homo sapiens, UniProt Q92993).
T1 construct: expressed in transfected cells; host or cells: 293T cells
The assay can be described thus: TIP60 activity by acetylation of TIP60 or its substrate FOXP3 in transfected 293T cells (Ac-K immunoprecipitation, Western blot). Type of assay: cell-based. The settings on record: 4 hours. The protocol:
FIG. 11 illustrate the effect of B7G on TIP60. TIP60 activity was assessed by examining acetylation of TIP60 or its substrate FOXP3. Both TIP60 and FOXP3 were overexpressed in 293T cells. Acetylated proteins were first immunoprecipitated with the acetyl-lysine specific antibody Ac-K and then blotted with HRP conjugated antibodies to expression tags (HA for FOXP3 or FLAG for TIP60).
TIP60 is known to have acetyl transferase activity to acetylate itself (auto-acetylation) or substrates including FOXP3. To examine activity of B7G on TIP60, 293T cells were transfected with Flag-tagged TIP60 and HA-tagged FOXP3. 24 hours after transfection, cells were treated with various concentrations of B7G for 4 hours before cell lysates were collected. Acetylated proteins were precipitated by anti-acetyl lysine antibody Ac-K. FOXP3 and TIP60 in the lysate or precipitated by Ac-K antibody were identified by anti-HA-HRP and anti-FLAG-HRP respectively.
(In general: In western blotting, separated proteins are transferred to a membrane and probed.)

The test system of assay [2] is dextran sodium sulfate (DSS) colitis. The assay can be described thus: DSS model of colitis, reversal of established colitis. Type of assay: in vivo, mice. The procedure:
FIG. 12A-C are the results of experiments described in Example 5. […] FIG. 12C provide graphical data for weight loss, bleeding score, and stool consistency (i.e., higher score reflects higher levels of diarrhea), wherein the mice were first subjected to DSS irritation, then subset populations were remedially treated after 8 days with the compound having Structure B7.
In a first test, the effects of exposure to dextran sodium sulfate (DSS) were evaluated, which results in a partially CD4-dependent inflammatory model of colitis, in wildtype (WT) versus TIP60dn C57BL/6 mice (8 mice/group).
Data were also generated using the compound of Structure B7 in the DSS model, in an experiment designed to test the ability of TIP60 inhibitor therapy to reverse established colitis by waiting until mice had ˜15% weight loss. In marked contrast to use of carrier DMSO alone, TIP60 inhibitor therapy (2 mg/kg/d, i.p.) reversed weight loss (p<0.01), blood in the stool (p<0.01) and diarrhea (p<0.005) (see FIG. 12C) and maintained colon length (p<0.01).

The mark [3] stands for this setting: 2 mg/kg/d i.p., vs carrier DMSO, p<0.01.

T1 sequence (Q92993 whole entry, species assumed): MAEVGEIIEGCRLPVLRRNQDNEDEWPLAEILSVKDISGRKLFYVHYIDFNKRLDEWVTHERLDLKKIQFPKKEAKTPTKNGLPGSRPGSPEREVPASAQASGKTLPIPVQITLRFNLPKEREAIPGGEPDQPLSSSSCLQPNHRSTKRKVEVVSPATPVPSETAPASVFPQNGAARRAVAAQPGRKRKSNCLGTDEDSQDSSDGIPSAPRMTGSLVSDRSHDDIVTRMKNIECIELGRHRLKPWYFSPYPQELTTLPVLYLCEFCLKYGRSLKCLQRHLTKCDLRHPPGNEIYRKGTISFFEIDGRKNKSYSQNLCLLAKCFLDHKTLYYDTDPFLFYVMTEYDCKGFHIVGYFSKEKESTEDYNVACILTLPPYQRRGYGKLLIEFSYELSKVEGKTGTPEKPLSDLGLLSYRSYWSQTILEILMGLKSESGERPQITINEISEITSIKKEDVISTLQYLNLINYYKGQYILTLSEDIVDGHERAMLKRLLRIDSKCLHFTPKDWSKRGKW

With `O=C(Nc1ccc(Cl)cc1)C1CC(=O)N(CCc2ccc(Cl)cc2)C1` (stereo not drawn) [Compound B7A], the “suppression of Treg in vitro” value in assay [1] is reported as “enhancement”.

Consider `COc1ccc(NC(=O)C2CC(=O)N(CCc3ccc(Cl)cc3)C2)cc1` (stereo not drawn) [Compound B7B], for which the “suppression of Treg in vitro” value in assay [1] is on record as “enhancement”.

Consider `Cc1ccc2cc(NC(=O)C3CC(=O)N(CCc4ccc(Cl)cc4)C3)ccc2n1` (stereo not drawn) [Compound B7C], for which, in the assay with FOXP3, the “FOXP3 bound on chromatin” value was “intervening with FOXP3 bound on chromatin”. Besides, in assay [1], the “suppression of Treg in vitro” value is listed as “enhancement”.

Take `COc1ccc(CCN2CC(C(=O)Nc3ccc(F)c(Cl)c3)CC2=O)cc1OC` (stereo not drawn) [Compound B7G]: at TIP60 (32 μg/ml), the “Acetylated FOXP3” value is “reduced significantly” and the “Acetylated TIP60” value was “reduced significantly”. For the same molecule, the TIP60 auto-acetylation entry on TIP60 (lower concentration) is “slightly increase”. Also, the “TIP60 expression level in total cell lysate” value on TIP60 (various concentrations, FLAG-HRP) is reported as “not significantly affected”. For the same molecule, the “FOXP3 expression level in total cell lysate” value at TIP60 (various concentrations, HA-HRP) was “not significantly affected”.

In the case of `Cc1ccc(NC(=O)C2CC(=O)N(CCc3ccc(Cl)cc3)C2)cc1` (stereo not drawn) [Compound B7], the weight loss result in assay [2] (2 mg/kg/d i.p., started at ~15% weight loss, vs carrier DMSO, p<0.01) is “reversed”. In assay [2] (2 mg/kg/d i.p., vs carrier DMSO, p<0.005), the diarrhea entry is listed as “reversed”. In assay [2] (setting [3]), the “blood in the stool” value is recorded as “reversed” and the colon length entry is recorded as “maintained”. For the same molecule, in assay [2] (single animal, 3% DSS then B7), the “colon length relative to unstressed control animal” value is “about 94%” and the “spleen size relative to control” value was “comparable in size to that of the control”. For the same molecule, in assay [1], the “suppression of Treg in vitro” value is listed as “enhancement”. Moreover, in assay [1] (B7 2.5 to 10 μM, dose dependent), the “Treg activity (decreasing T cell proliferation)” value is reported as “enhanced the Treg activity”. Besides, in assay [1] (Treg:T cell 0:1, FIG. 8A-D left panels), the “T cell proliferation in the absence of Treg cells” value is recorded as “unimpaired”. Besides, the “T cell proliferation (percentage of proliferated cells)” value in assay [1] (highest B7 dose 10 μM (FIG. 8B, 1000x dilution)) came out at 25%. In assay [1] (intermediate B7 dose (FIG. 8C, 4000x dilution of 10 mM)), the “T cell proliferation (percentage of proliferated cells)” value is recorded as 30%. Besides, the “T cell proliferation (percentage of proliferated cells)” value in assay [1] (lowest B7 dose (FIG. 8D, 8000x dilution of 10 mM; text: 2.5 μM)) worked out at 37%.
